Test results: ChEMBL document CHEMBL5360640, “Liquiritigenin Confers Liver Protection by Enhancing NRF2 Signaling through Both Canonical and Non-canonical Signaling Pathways” (2023)
Active and inactive are the calls of the source. No cut-off for these calls is given here.

Key:
Mus musculus [1] = experiment: Hepatoprotective activity against cisplatin induced liver injury […] mouse model assessed as reduction of AST in serum at 40 mg/kg, ip administered every 24 hrs for 72 hrs; type: functional, organism-based
[2] = target: T1, Nuclear factor erythroid 2-related factor 2 (Mus musculus) (UniProt Q60795); experiment: Activation of NRF2 in mouse BNL CL.2 cells assessed as increase in Hmox1 gene level upto 40 uM incubated upto 24 hrs by rt-qPCR analysis; type: cell-based; details: filed as activator
T1 sequence (whole entry): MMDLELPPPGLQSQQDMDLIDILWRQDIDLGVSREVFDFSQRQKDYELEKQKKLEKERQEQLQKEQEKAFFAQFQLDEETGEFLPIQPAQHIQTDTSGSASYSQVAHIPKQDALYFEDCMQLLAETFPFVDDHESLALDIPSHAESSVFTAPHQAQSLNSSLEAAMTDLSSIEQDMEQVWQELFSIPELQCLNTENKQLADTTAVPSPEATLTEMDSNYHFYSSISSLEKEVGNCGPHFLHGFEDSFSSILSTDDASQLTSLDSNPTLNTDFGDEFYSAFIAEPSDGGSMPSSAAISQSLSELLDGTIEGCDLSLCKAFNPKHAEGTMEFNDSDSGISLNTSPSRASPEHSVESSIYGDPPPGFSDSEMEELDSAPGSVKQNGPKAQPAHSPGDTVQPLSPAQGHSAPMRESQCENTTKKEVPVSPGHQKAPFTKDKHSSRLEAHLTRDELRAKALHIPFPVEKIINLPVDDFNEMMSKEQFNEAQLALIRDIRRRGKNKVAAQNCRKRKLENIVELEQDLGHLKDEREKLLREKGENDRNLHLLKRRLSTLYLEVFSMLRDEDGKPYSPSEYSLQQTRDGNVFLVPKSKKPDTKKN

BNL CL.2 [3] = experiment: Effect of ROS generation in mouse BNL CL.2 cells incubated at 20 uM for 24 hrs (reference value: 9.42%); type: functional
[4] = target: T2, Nuclear factor erythroid 2-related factor 2 (Homo sapiens) (UniProt Q16236); experiment: Activation of NRF2 in human MHCC97H cells treated for 8 to 24 hrs by immunoblot analysis; type: cell-based; details: filed as activator, dose 10-40 µM, time 8-24 hrs
T2 sequence (whole entry): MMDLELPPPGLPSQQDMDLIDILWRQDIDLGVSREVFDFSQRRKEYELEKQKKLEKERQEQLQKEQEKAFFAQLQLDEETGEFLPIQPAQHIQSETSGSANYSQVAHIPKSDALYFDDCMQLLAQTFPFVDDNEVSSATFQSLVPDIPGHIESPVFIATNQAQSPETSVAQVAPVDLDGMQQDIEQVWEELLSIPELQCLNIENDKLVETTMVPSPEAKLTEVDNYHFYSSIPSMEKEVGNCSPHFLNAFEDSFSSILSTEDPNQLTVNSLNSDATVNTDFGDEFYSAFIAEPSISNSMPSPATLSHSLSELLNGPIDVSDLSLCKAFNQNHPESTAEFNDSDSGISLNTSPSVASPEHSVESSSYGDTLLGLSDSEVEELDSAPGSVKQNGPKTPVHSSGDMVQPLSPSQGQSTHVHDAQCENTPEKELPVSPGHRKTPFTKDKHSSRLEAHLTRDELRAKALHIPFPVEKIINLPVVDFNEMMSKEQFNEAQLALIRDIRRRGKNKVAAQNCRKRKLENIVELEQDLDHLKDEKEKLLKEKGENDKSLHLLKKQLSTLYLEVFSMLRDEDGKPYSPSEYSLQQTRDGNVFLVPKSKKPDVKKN

Mus musculus [5] = experiment: Hepatoprotective activity against cisplatin induced liver injury […] mouse model assessed as increase of NRF2 expression in liver tissue at 40 mg/kg, ip administered every 24 hrs for 72 hrs by IHC staining analysis; type: functional, organism-based
BNL CL.2 [6] = experiment: Effect of ROS generation in mouse BNL CL.2 NRF2 knockout cells assessed as increase in ROS level treated at 40 uM for 24 hrs (reference value: 10.6%); type: functional
[7] = target: T2, Nuclear factor erythroid 2-related factor 2 (Homo sapiens); experiment: Activation of NRF2 in human HepG2 cells treated for 8 to 24 hrs by immunoblot analysis; type: cell-based; details: filed as activator, dose 10-40 µM, time 8-24 hrs
Mus musculus [8] = experiment: Hepatoprotective activity against cisplatin induced liver injury […] mouse model assessed as rescue of hepatocellular edema at 40 mg/kg, ip administered every 24 hrs for 72 hrs; type: functional, organism-based
[9] = target: T1, Nuclear factor erythroid 2-related factor 2 (Mus musculus); experiment: Activation of flag-tagged NRF2 in mouse BNL CL.2 cells in presence of wildtype His-tagged KEAP1 at 40 uM for 24 hrs followed by treatment with MG132 for 4 hrs by immunoblot assay; type: cell-based; details: filed as activator
BNL CL.2 [10] = experiment: Effect of ROS generation in mouse BNL CL.2 cells assessed as increase in ROS level treated at 40 uM for 24 hrs (reference value: 8.04%); type: functional
BNL CL.2 [11] = experiment: Inhibition of autophagy in mouse BNL CL.2 cells assessed as suppression of autolysosome formation by measuring reduction in red puncta incubated upto 80 uM for 24 hrs by immuno fluoroscence analysis; type: functional, cell-based
[12] = target: T1, Nuclear factor erythroid 2-related factor 2 (Mus musculus); experiment: Activation of NRF2 in mouse BNL CL.2 cells assessed as increase in Akr1c1 gene level upto 40 uM incubated upto 24 hrs by rt-qPCR analysis; type: cell-based; details: filed as activator
Mus musculus [13] = experiment: Hepatoprotective activity against cisplatin induced liver injury […] mouse model assessed as reduction of MDA in liver tissue at 40 mg/kg, ip administered every 24 hrs for 72 hrs; type: functional, organism-based
BNL CL.2 [14] = experiment: Inhibition of autophagy in mouse BNL CL.2 cells assessed as decrease in LC3-II level incubated upto 80 uM for 24 hrs by immunoblotting analysis; type: functional, cell-based
Mus musculus [15] = experiment: Hepatoprotective activity against cisplatin induced liver injury […] mouse model assessed as no change in liver to body weight ratio at 40 mg/kg, ip administered every 24 hrs for 72 hrs; type: functional, organism-based
BNL CL.2 [16] = experiment: Upregulation of NOTUM mRNA expression in mouse […] cells; type: functional, cell-based
BNL CL.2 [17] = experiment: Inhibition of autophagy in mouse BNL CL.2 cells assessed as suppression of autophagosome formation by measuring reduction in yellow puncta incubated upto 80 uM for 24 hrs by immuno fluoroscence analysis; type: functional, cell-based
[18] = target: T1, Nuclear factor erythroid 2-related factor 2 (Mus musculus); experiment: Activation of NRF2 in mouse BNL CL.2 cells assessed as increase in Gclm gene level upto 40 uM incubated upto 24 hrs by rt-qPCR analysis; type: cell-based; details: filed as activator
BNL CL.2 [19] = experiment: Effect of ROS generation in cisplatin induced hepatotoxicity in mouse BNL CL.2 cells assessed as increase in ROS level treated at 40 uM for 24 hrs (reference value: 83%); type: functional
BNL CL.2 [20] = experiment: Effect on KEAP1 level in mouse BNL CL.2 NRF2 knockout cells assessed as no change treated at 40 uM for 24 hrs by immunoblot analysis; type: functional, cell-based
[21] = target: T1, Nuclear factor erythroid 2-related factor 2 (Mus musculus); experiment: Binding affinity to Flag-tagged NRF2 in mouse BNL CL.2 cells assessed as increase in protein half life treated upto 45 mins with compound; type: cell-based; details: filed as activator
Mus musculus [22] = experiment: In vivo activation of NRF2 in C57BL/6J mouse liver assessed as upregulation of NRF2 level administered at 40 mg/kg, ip 3 times in a day by immunohistochemistry analysis; type: functional, organism-based; details: filed as activator, time 1.0 day
BNL CL.2 [23] = experiment: Inhibition of autophagy in mouse BNL CL.2 cells assessed as increase in p62 level incubated upto 80 uM for 24 hrs by immunoblotting analysis; type: functional, cell-based
BNL CL.2 [24] = experiment: Upregulation of ARSG mRNA expression in mouse […] CL.2 cells; type: functional, cell-based

Activity [2]: Active | Activity [4]: Dose-Dependent Effect | Activity [7]: Dose-Dependent Effect | Activity [9]: Active | Activity [12]: Active | Activity [18]: Active | Activity [21]: Active
SMILES: O=C1C[C@@H](c2ccc(O)cc2)Oc2cc(O)ccc21 [LIQUIRTIGENIN]
Activity (Mus musculus [1]): Active | Activity (BNL CL.2 [3]): 9.34% | Activity (Mus musculus [5]): Active | Activity (BNL CL.2 [6]): 8.04% | Activity (Mus musculus [8]): Active | Activity (BNL CL.2 [10]): 2.26% | inhibition (BNL CL.2 [11]): Active | Activity (Mus musculus [13]): Active | inhibition (BNL CL.2 [14]): Active | Activity (Mus musculus [15]): Active | Activity (BNL CL.2 [16]): Active | inhibition (BNL CL.2 [17]): Active | Activity (BNL CL.2 [19]): 76% | Activity (BNL CL.2 [20]): Active | Activity (Mus musculus [22]): Active | inhibition (BNL CL.2 [23]): Active | Activity (BNL CL.2 [24]): Active
